Data published in US10072021B2, “Compound for inhibiting binding between DX2 protein and P14/ARF protein, and pharmaceutical composition for treating or preventing cancer disease containing same as effective ingredient” (PUSAN NATIONAL UNIVERSITY INDUSTRY-UNIVERSITY COOPERATION …, priority 2014, dated 2018).
Entries after “also recorded” stand apart in the source; their conditions may differ.

Key:
[1] = test system: lung tumors of DK mice; test: In vivo anticancer effect in DK mice (lung tumors)
Description: All experimental procedures using laboratory animals were approved by the animal care committee of Pusan National University. DX2 (C57/BL6) and K-RasLA2 (C57/BL6) mice were obtained from Dr. Kim, Sung-Hoon and Professor. Choi, Kang-Ryeol (Yonsei University), respectively, and double Tg mice were obtained by cross-breeding of DX2 and K-RasLA2 mice. Before experiment, all mice were maintained under temperature- and light-controlled conditions (20-23° C., 12 h/12 h light/dark cycle), and provided autoclaved food and water.
Every weeks, tumor volume and body weight were measured.
After dissection of mice, tissues were fixed using 10% formalin (in PBS) for 24 hours, and embedded in paraffin blocks according to a basic tissue processing procedure. For histological analysis, embedded tissues were cut for […] by Leica microtome (Wetzlar, Germany) and transferred onto adhesive-coated slides (Marienfeld laboratory glassware, Germany). After deparaffin and rehydration, sections were then stained with H&E for routine examination.
For IHC staining, rehydrated tissue sections were incubated with antibodies to Ki-67 (Abcam, ab15580), pan-keratin (Sigma, C2931), pro-surfactant C (Millipore, AB3786), NSE (DAKO, IS612), and HER2/Neu (DAKO, A0458) for a reaction. Antigen retrieval was performed using 10 mM sodium citrate (pH 6.0) twice at a temperature of 95° C. for 10 minutes each, and endogenous peroxidase activity was blocked with 3% […] for 10 min. Then, the slides were dehydrated following a standard procedure and sealed with cover glass using mounting solution. TUNEL reaction was done as described in the manual for In Situ Cell Death Detection Kit, POD (Hoffmann-La Roche Ltd, Basel, Swizerland).
To evaluate tumor incidence, lung tissues of each mouse was fixed and embedded in paraffin. 5 sections from each mouse were examined by 3 independent investigator, who counted tumor. In addition, tumor area was calculated by tumor occupied area in total lung area using photoshop software.

[2] = test system: human lung cancer cell lines; test: MTT viability of various human lung cancer cell lines; format: cell-based; details: 24 hours, MTT assay, FIG. 5
Description: (§1) By MTT assay, anticancer effects were confirmed based on viability of tumor cells. That is, cells were incubated in 0.5 mg/ml of MTT solution for 4 hours at a temperature of 37° C. for a reaction, and then, formazen products formed therefrom were dissolved in dimethyl sulfoxide (DMSO). Then, absorbance thereof was measured at 540 nm by using a spectrometer.

[3] = molecular target: T1, DX2-p14/ARF binding (Homo sapiens, UniProt Q13155); test: GST pull-down assay of DX2-p14/ARF binding; details: FIG. 2A, 3A, 3D, 3E
T1 construct: made in house; host or cells: E. coli BL21(DE3) for GST-p14/ARF; DX2 from 'cell lysate or recombinant protein'
T1 sequence (Q13155 1-251 isoform Q13155-2): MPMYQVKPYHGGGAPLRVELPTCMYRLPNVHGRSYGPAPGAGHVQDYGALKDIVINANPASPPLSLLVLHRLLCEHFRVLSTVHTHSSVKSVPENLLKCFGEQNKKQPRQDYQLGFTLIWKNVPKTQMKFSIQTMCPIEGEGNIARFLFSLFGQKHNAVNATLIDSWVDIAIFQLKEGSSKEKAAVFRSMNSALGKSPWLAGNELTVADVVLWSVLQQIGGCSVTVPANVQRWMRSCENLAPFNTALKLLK
From the text: Through GST pull-down assays, more specific binding inhibitors were selected among the previously screened candidate drugs as DX2-p14/ARF binding inhibitors. That is, a p14/ARF fragment (full-length) was ligated into EcoRI and Hind II sites of pGEX-TEV vector, which is a modified vector by adding a TEV protease cleavage site to pGEX-4T1. The recombinant proteins were then expressed in E. coli strain BL21(DE3) as GST-fusion proteins. The proteins were purified by glutathione affinity chromatography.
To address direct binding between the two proteins, agarose-bead conjugated GST (negative control) or GST-target protein was incubated with cell lysate or recombinant protein in radioimmunoprecipitation assay (RIPA) buffer (NaCl, 25 mM Tris-Cl, 1% NP-40, 1% sodium deoxycholate, 0.1% SDS, protease inhibitor mixture) for 1 hour at a temperature of 4° C. for a reaction.

[4] = test system: H446 xenograft
Description: DK (5 month-old, N=6) mice were administered with carrier, SLCB050 (5 or 10 mg/kg), Adriamycin (1, 2.5, or 5 mg/kg), and a combination of SLCB050 and Adriamycin by intraperitoneal (i.p.) injection. After termination of the experiment of each group, mice were dissected and isolated lung tissues. For xenograft, 1×10^7 H446 cells (ATCC) were seeded in nude ice. After 4 weeks, tumor bearing mice were injected with Adriamycin, […], or a combination thereof for 6 weeks. Every weeks, tumor volume and body weight were measured.

[5] = test system: DX2 and DK MEFs; primary tumor cells from DX2 and DK mice; test: Reduction of anticancer drug resistance in DX2 and DK MEFs or primary tumor cells (MTT); format: cell-based, mouse
Description: as §1

[6] = molecular target: T2, DX2-p14/ARF interaction (Homo sapiens, UniProt Q13155); test: Immunoprecipitation analysis of DX2-p14/ARF interaction in cotransfected 293 cells; format: cell-based; details: MG132, SLCB050 10 μM, 6 hours, IP with Myc antibodies
T2 construct: expressed in transfected cells; host or cells: 293 (HEK293) cells
T2 sequence (Q13155 1-251 isoform Q13155-2): T1 sequence (Q13155 1-251 isoform Q13155-2)
Description: Here, contransfected 293 cells were allowed to react with MG132 before immunoprecipitation analysis to prevent reduction of two proteins, and after performing SLCB050 treatment (10 μM, 6 hours), immunoprecipitation assay was performed on the cells by using Myc antibodies (DX2).
Here, 293 cells were transfected with indicating vectors for 24 hours and was allowed to react with MG132 and SLCB050 for 6 hours.
Immunoprecipitation (IP) assay was performed with cell lysate or recombinant protein with RIPA buffer. The whole lysates were incubated with suitable antibodies for 2 hours at a temperature of 4° C. for a reaction, and then, the mixtures were added with A/G-agarose beads-conjugated secondary antibody (Invitrogen, Carlsbad, Calif., USA) for 2 hours. After incubation for a reaction, the mixtures were washed using RIPA buffer twice, and precipitated proteins were determined by western blot analysis.

For CC1(C)Oc2cc3oc(=O)ccc3cc2C[C@@H]1OC(=O)/C=C/c1ccco1 [SLCB050, (7S)-(+)-3-(2-Furanyl)-acrylic acid, 8,8-dimethyl-2-oxo-6,7-dihydro-2H,8H-pyrano[3,2-g]chromen-7-yl-ester], the “weight loss, combination” value ([1]; DK mice, SLCB050 10 mg/kg and Adriamycin 2.5 mg/kg) was “without significant weight loss”, the “tumor progression, combination” value ([1]; DK mice, SLCB050 10 mg/kg and Adriamycin 2.5 mg/kg, i.p., FIG. 10B, 10C) was “significantly suppressed tumor progression; also recorded: induced tumor regression” and the “DX2 level in vivo (western blot)” value ([1]; DK mice, SLCB050 treatment, FIG. 12A) was “reduction of DX2”. For the same compound, the “tumor volumes, combination” value ([1]; DK mice, combinational treatment with Adriamycin and SLCB050, FIG. 10C) was “reduced tumor volumes”, the “SCLC regions in lung tissue (H-E staining), combination” value ([1]; DK mice, combinational treatment with Adriamycin and SLCB050, FIG. 11) was “more obviously erased” and the “apoptotic tumor cells (TUNEL staining)” value ([1]; lung tissues of DK mice treated with Adriamycin and SLCB050 in combination, FIG. 12B, 12C) was “obviously increased apoptosis tumer cells”. The “viability of SCLC cells” value [2] was “very sensitive”, the “viability of p14/ARF-deficient cell lines” value [2] was “resistant” and the “inhibitory effect on DX2-p14/ARF binding” value [3] was “completely blocked; also recorded: showed inhibitory effects on DX2-p14/ARF binding”. For the same compound, the “tumor growth, combination” value ([4]; SLCB050 10 mg/kg with low dose Adriamycin 2.5 mg/kg, FIG. 9B) was “more obvious anticancer effect; also recorded: obviously suppressed tumor growth”, the “tumor volume, SLCB050 alone” value ([4]; SLCB050 10 mg/kg, three times/week, FIG. 9B) was “moderately suppressed” and the “response of H446 xenograft model” value ([4]; single agents, FIG. 9A) was “partially responded”. The “resistance to Adriamycin in primary tumor cells from DX2 and DK mice” value ([5]; Adriamycin 0.2 μg/ml with SLCB050 10 μM, 24 hours, FIG. 8B) was “resistance to Adriamycin was also abolished”, the “resistance to GN25 in DX2 and DK MEFs” value ([5]; GN25 5 μM with SLCB050 10 or 20 μM, 6 hours, FIG. 8A) was “resistance to GN25 in DX2 and DK cells was abolished” and the “interaction of p14/ARF with DX2 in cells” value [6] was “inhibited the interaction of p14/ARF with DX2 in cells”.
